Experimental data as given in patent US8563578B2, “Antitumor properties of NO modified protease inhibitors” (Onconox APS, priority 2008, dated 2013).

Experiments:
B16 cells [1] = test: LDH release assay, B16; type: cell-based; details: for LDH release (cytotoxicity, necrosis): 24 h, different doses
Protocol: Reduction of 3-4,5-dimethylthiazol-2-yl)-2,5-diphenyltetrazolium bromide (MTT) to formazan depends on mitochondrial activity of cultured cells, absorption of crystal violet dye correlates with the number of adherent, live cells, while the release of cytosolic lactate dehydrogenase (LDH) indicates the disruption of membrane integrity caracteristic for necrotic cells. […] Mitohondrial-dependent production of formazan and intensity of absorbed crystal violet by adherent cells were assessed by an automated microplate reader at 570 nm, while the pyruvate-mediated conversion of 2,4-dinitrophenylhydrazine into visible hydrazone precipitate in LDH assay was measured at 492 nm. The % of cytotoxicity as indicated by LDH release was calculated as: (E−C)/(T−C)×100, where E is the experimental absorbance of cell cultures, C is the control absorbance of cell-free culture medium, and T is the absorbance corresponding to the maximal (100%) LDH release of Triton-lysed cells.
(§1) FIG. 4. […] Results are calculated as indicated in materials and methods and presented as mean±SD from representative of three independent experiment (*p <0.05). […] After 24 h of cultivation without or with drugs, cells were stained with AO orange (B) or PI (C) and analyzed by flow cytometry. The data are presented as mean±SD from three independent experiments. *p<0.05, refers to untreated cultures. […] Cells were incubated with 18.8 μM of Sag or Saq-NO2 for 24 h. After that, the drugs were either removed or not from the cells and incubated for additional 24 h. Cell viability was determined by CV test after 24 and 48 h of incubation (right panels). The data are presented as mean±SD from three independent experiments. *p<0.05, refers to untreated cultures.

C6 cells [2] = test: Autophagy detection by acridin orange staining, C6; type: cell-based, rat; details: 18.8 μM, 24 h
Protocol: Vital dye acridin orange (AO) was used for detection of autophagy. The intensity of red fluorescence correlates with acidity and volume of present autophagic organelles (Kanzawa et al. 2004). Assay was performed as follows: the cells were cultured in 6-well plate (2×10^5/well) 24 h in the presence of the drug, detached with trypsin and stained with 1 μg/ml AO in RPMI without phenol red for 15 min at RT. After the end of incubation period cells were washed and resuspended in PBS. Green and red fluorescence emission was measured with a FACSCalibur and analyzed using CellQuest software.
as §1

C6 cells [3] = test: Cell cycle / apoptosis by propidium iodide flow cytometry, C6; type: cell-based, rat; details: 18.8 μM, 24 h
Protocol: Apoptotic cell death was assessed by flow cytometry analysis of DNA fragmentation in cells stained with DNA-binding dye propidium iodide (PI). Following a 24 h incubation in 6-well plate, cells (2×10^5/well) were detached with trypsin, washed and fixed in 70% ethanol at 4° C. for 30 min. After washing in PBS, cells were resuspended in PBS containing 1 mg/ml RNase and propidium iodide (40 μg/ml) and kept at 37° C. in the dark for 30 min. Red fluorescence was analyzed with FACSCalibur flow cytometer (BD, Heidelberg, Germany) and distribution of cells among cell cycle phases was determined with Cell Quest Pro software (BD). Hypodiploid cells in sub-G0/G1 compartment were considered apoptotic.
as §1

tyrosinase of B16 cells = test: Tyrosinase activity assay, B16; type: cell-based, mouse; details: 18.8 μM, 24 h
Protocol: (§2) Tyrosinase activity was determined by measuring the rate of oxidation of L-DOPA^34. Briefly, sub-confluent cultures in 6-well plate were lysed in 100 μl phosphate buffer pH 6.8-1% Triton X-100 and than centrifuged at 10000 rpm for 5 min. 40 μl of each extract was mixed with 100 μl of L-DOPA substrate solution (2 mg/ml). Enzymatic reaction was carried out at 37° C. and the absorbance at 570 nm was read every 10 min for at least 1 h. The final activity was corrected by the total amount of protein estimated by Bradford assay. For melanin determination cells were incubated in 6 well plate for 24 h, trypsinized, counted and than lysed in 100 μl of 1M NaOH. 400 μl of distilled water was added and samples were incubated at 60° C. for 1 h. Thereafter, absorbance of dissolved dye was measured at 492 nm.
(§3) FIG. 5. […] Cell morphology was assessed by light microscopy (A). Markers of cell differentiation of C6 and B16 cells, galactocerebroside, GFAP and MBP were determined by cELISA and melanin and tyrosinase activity were determined as described in material and methods (B). Cyclin D3 and p53 expression were evaluated by cELISA (C, upper panels), immunocytochemistry (C, middle panel) and Western blot (C, lower panel). The results were presented as mean±SD from three independent experiments. *p<0.05, refers to untreated cultures.

B16 cells [4] = test: Melanin determination, B16; type: cell-based, mouse; details: 18.8 μM, 24 h
Protocol: as §2, §3

B16 melanoma = B16 melanoma growth in syngeneic C57BL/6 mice; type: in vivo, mouse; details: 10 mg/kg i.p.; for animals that developed tumors at autopsy: day 30 post tumor challenge
Protocol: In order to induce primary tumor 2×10^5 B16 melanoma cells were injected subcutaneously (s.c) in the dorsal right lumbosacral region of syngeneic C57BL/6 mice. Tumor growth was observed daily, and the drug treatment started from day 10 after implantation. […] Mice were sacrificed on day 30, tumor growth was determined by three-dimensional measurements of individual tumors from each mouse. Tumor volume was calculated as: [0.52×a×b^2], where a is the longest and b is the shortest diameter as described previously (Maksimovic-Ivanic et al. 2008).
FIG. 7. […] Tumor volumes were determined 30 days after tumor implantation, as indicated in Materials and methods.

[5] = 15 consecutive days from day 10

| SMILES | LDH release (cytotoxicity, necrosis) (B16 cells [1]) | amount of acidic vesicles in the cytoplasm (autophagy) (C6 cells [2]) | cell cycle distribution (C6 cells [3]) | tyrosinase activity (tyrosinase of B16 cells) | melanin content (B16 cells [4]) | animals without tumors with strong inflammation of peritoneum (B16 melanoma; 15 consecutive days) | loss of body weight from initial body weight (B16 melanoma; 15 consecutive days) | tumor volume (B16 melanoma; 15 consecutive days from day 10, day 30) | animals that developed tumors at autopsy (B16 melanoma; [5]) | LDH release (cytotoxicity, necrosis) (B16 cells [1]; listed as Saq-NO) | cytotoxicity at 18.8 µM (B16 cells [1]; Mus musculus, 18.8 μM, 18 h of exposure, control 2.3%) | percentage of cells in subG compartment (apoptosis) (C6 cells [3]) | raise of body weight, of initial body weight (B16 melanoma; 15 consecutive days) | visible signs of toxicity (B16 melanoma; 15 consecutive days) |
| --- | --- | --- | --- | --- | --- | --- | --- | --- | --- | --- | --- | --- | --- | --- |
| CC(C)(C)NC(=O)[C@@H]1C[C@@H]2CCCC[C@@H]2CN1C[C@@H](O)[C@H](Cc1ccccc1)NC(=O)[C@H](CC(N)=O)NC(=O)c1ccc2ccccc2n1 [Saq, Saquinavir, reference compound] | induced LDH release in both cell lines in a dose-dependent way | absence of autophagia | did not show considerably different distribution from control | increased | increased | 4 animals | 10% | significantly reduced volume | 3/9 | – | – | – | – | – |
| CC(C)(C)NC(=O)[C@@H]1C[C@@H]2CCCC[C@@H]2CN1C[C@@H](O[N+](=O)[O-])[C@H](Cc1ccccc1)NC(=O)[C@H](CC(N)=O)NC(=O)c1ccc2ccccc2n1 [Saq-NO2, nitric ester of Saquinavir] | induced significant cytoxicity even at lowest dose tested | absence of autophagia | particularly marked arrest in G0/G1 | slight but significant decrease | unchanged | – | – | – | one | dose-dependent LDH release was detected upon all tested doses | 6.2% | slightly increased | 13% | no any visible signs of toxicity |
